# Experimental data taken from ChEMBL document CHEMBL1201862, “PubChem BioAssay data set” (2004).
# Activity calls are given as the source filed them. Cut-off read from the data, not from the text of the source, for most assays here: actives have a measured EC50 and inactives only a lower limit.
# Assays:
# [1] = system: H9c2; experiment: cells; assay type: functional, cell-based; conditions: Rattus norvegicus, H9c2, Myocardium;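 note: confirmatory concentration-response retest of ultra-high-throughput screening hits for modulation of myocardial damage; cell death induced by hydrogen peroxide oxidative stress; compound pretreatment for 60 min then peroxide exposure for 2 h; potency is for protecting the cells against peroxide damage rather than for killing them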
# [2] = system: Streptococcus sp. 'group A'; experiment: growth inhibition of control SK(-) GAS strain, dose response, counter-screen for streptokinase expression inhibitor project, luminescence, kanamycin, BacTiterGlo, confirmation (AID 1900); assay type: functional, organism-based
# [3] = target: T1, Streptokinase A (Streptococcus pyogenes serotype M1, UniProt P10520); experiment: S. pyogenes streptokinase expression inhibitors, potency, dose response, plasminogen activation absorbance, OD405 (AID 1914); assay type: functional, Streptococcus pyogenes M1 GAS;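 note: secreted streptokinase activity via plasminogen activation per viability signal from cell pellet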
# T1 sequence (P10520 whole entry): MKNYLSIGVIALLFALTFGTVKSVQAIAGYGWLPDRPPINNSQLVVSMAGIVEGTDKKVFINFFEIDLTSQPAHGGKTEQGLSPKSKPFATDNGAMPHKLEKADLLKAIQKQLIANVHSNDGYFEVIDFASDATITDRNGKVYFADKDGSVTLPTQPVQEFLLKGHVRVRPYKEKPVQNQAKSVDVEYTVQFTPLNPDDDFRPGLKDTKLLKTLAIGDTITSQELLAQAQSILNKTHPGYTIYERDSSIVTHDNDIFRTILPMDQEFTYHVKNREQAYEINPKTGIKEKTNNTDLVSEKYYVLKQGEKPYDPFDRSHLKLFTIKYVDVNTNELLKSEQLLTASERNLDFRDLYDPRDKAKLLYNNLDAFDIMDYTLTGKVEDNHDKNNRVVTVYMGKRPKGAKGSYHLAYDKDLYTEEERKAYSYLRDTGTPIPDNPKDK
# [4] = system: Streptococcus; experiment: Group A Streptococcus viability loss, dose response, counter-screen for streptokinase expression inhibitor project, luminescence, BacTiterGlo (AID 1915); assay type: functional, organism-based;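 note: potency for reduction of bacterial viability or growth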
# [5] = HEp-2 cell cytotoxicity, dose response, cytotoxicity control for RSV inhibitor project, HTS (AID 2410); assay type: functional; conditions: human respiratory syncytial virus
# [6] = target: T2, Corticotropin-releasing factor receptor 2/Corticotropin-releasing factor-binding protein (Homo sapiens, UniProt P24387+Q13324); experiment: activators of CRF receptor 2 with binding protein – uHTS hits, confirmation (AID 602473); assay type: functional; conditions: read-out: EC50_Mean
# T2 sequence (Q13324 whole entry): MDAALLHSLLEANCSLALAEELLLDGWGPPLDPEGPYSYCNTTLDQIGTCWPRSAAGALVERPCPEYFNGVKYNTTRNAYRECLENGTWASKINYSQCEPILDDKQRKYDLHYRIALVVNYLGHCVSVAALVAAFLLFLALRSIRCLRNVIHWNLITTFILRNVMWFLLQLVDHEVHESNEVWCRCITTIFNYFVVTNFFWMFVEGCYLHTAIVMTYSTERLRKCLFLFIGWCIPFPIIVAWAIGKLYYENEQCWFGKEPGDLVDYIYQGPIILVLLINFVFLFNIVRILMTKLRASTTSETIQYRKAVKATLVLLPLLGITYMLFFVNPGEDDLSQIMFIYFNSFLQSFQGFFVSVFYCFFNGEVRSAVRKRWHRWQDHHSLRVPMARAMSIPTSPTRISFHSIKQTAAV
# T2 sequence (P24387 whole entry): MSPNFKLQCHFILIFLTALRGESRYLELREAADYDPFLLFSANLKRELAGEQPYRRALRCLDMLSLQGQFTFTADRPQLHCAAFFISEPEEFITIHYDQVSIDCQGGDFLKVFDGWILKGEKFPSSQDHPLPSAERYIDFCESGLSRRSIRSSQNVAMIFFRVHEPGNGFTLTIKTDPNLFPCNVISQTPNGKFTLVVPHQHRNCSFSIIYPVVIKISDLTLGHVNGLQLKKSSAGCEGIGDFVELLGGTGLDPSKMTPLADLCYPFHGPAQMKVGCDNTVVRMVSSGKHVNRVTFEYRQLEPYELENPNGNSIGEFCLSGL
# [7] = target: T2, Corticotropin-releasing factor receptor 2/Corticotropin-releasing factor-binding protein; experiment: Dose Response confirmation of uHTS hits for small molecule antagonists of the CRF-binding protein and CRF-R2 receptor complex.; assay type: functional; conditions: read-out: IC50_Mean
# [8] = system: INS1; experiment: beta cell apoptosis inhibitors, cytokine rescue, dose response, luminescence, retest (AID 449756); assay type: functional, cell-based; conditions: Rattus norvegicus;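 note: cell death triggered by IL-1 beta plus TNF-alpha plus IFN-gamma mixture; protective hits raise ATP signal compared with cytokine alone wells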
# [9] = inhibitors of SNCA 5'UTR-driven reporter translation, confirmation, H4 neuroglioma cells, luminescence (AID 1988); assay type: functional, cell-based
# [10] = inhibitors of firefly luciferase expression or activity, dose response, H4 neuroglioma cells, luminescence (AID 1990); assay type: functional, cell-based
# [11] = Luminescence Cell-Based Dose Response HTS to Identify Inhibitors of 5'UTR Stem-Loop Driven Prion Protein mRNA Translation in H4 Neuroglioblastoma Cells. [Related pubchem assays: 1827 (Project Summary), 1813 (Primary HTS)]; assay type: functional
smiles,measurement,setting,value
Cc1cccc(NC(=O)c2cc(-c3ccco3)nc3ccccc23)n1,IC50,[1],> 79 µM (inactive)
COc1ccc(C(C(=O)NCc2ccccc2)N(Cc2ccco2)C(=O)c2snc(C(N)=O)c2N)cc1 (configuration not stated),IC50,[1],> 79 µM (inactive)
CCC(=O)Nc1ccc(Nc2nc(C)c([N+](=O)[O-])c(Nc3ccc(NC(=O)CC)cc3)n2)cc1,EC50,[2],0.487 µM (active)
same,EC50,[3],> 150 µM (not active)
same,EC50,[4],49.3 µM (active)
CC(C)(C)c1ccc(Cn2ccc(-c3ccc4c(c3)OCO4)n2)cc1,EC50,[2],9.62 µM (active)
same,EC50,[3],> 150 µM (not active)
same,EC50,[4],79.9 µM (active)
CCOC(=O)c1ccc(NC(=O)CC2SC(N/N=C/c3c[nH]c4ccccc34)=NC2=O)cc1 (configuration not stated),EC50,[2],3.35 µM (active)
same,EC50,[3],> 150 µM (not active)
same,EC50,[4],> 150 µM (not active)
Cc1ccc2nc(-c3ccccc3)cc(C(=O)NNC(=O)c3csc(N4CCOCC4)n3)c2c1,IC50,[1],> 79 µM (inactive)
CCc1ccc(/C=C2\SC(N3CCCC3)=NC2=O)cc1,CC50,[5],> 50 µM (active)
CC[C@@]12C(=O)N(c3cccc(Br)c3)C(=O)N1[C@H](c1ccc(F)cc1)[C@@H]1C(=O)N(C3CCCCC3)C(=O)[C@@H]12,CC50,[5],41.1 µM (active)
Cc1noc(/C=C/N(C)C)c1S(=O)(=O)N1CCC(C(=O)Nc2ccc(Cl)cc2)CC1,EC50,[6],> 53 µM (inactive)
same,IC50,[7],> 47.1 µM (inactive)
Cc1cc(C)n(-c2nc(NCCO)c3c4c(sc3n2)CCCC4)n1,AC50,[8],5.3 µM (active)
Oc1nc2c(c3c1CCCC3)CCCC2,IC50,[1],> 79 µM (inactive)
O=C(/C=C/c1cccs1)c1cc(Br)ccc1OC(=O)N1CCOCC1,CC50,[5],18.7 µM (active)
CCCC(=O)Nc1sc2c(c1C(=O)OC)C(C(=O)OC)CC2 (configuration not stated),CC50,[5],31.6 µM (active)
COC(=O)c1ccc(OCC(O)CN2C(=O)c3ccccc3S2(=O)=O)cc1 (configuration not stated),EC50,[6],> 53 µM (inactive)
same,IC50,[7],> 47.1 µM (inactive)
Cc1[nH]c2ccccc2c1/C=N/NC(=O)c1cc(-c2cccs2)[nH]n1,IC50,[1],> 79 µM (inactive)
FC(F)(F)c1nc2ccccc2n2c(-c3ccc(Cl)cc3)nnc12,EC50,[9],8.92 µM (active)
same,EC50,[10],9.07 µM (active)
same,EC50,[11],9.21 µM (active)
same,AC50,[8],6.4 µM (active)
COc1cccc(-c2nnc3sc(-c4ccccn4)nn23)c1,IC50,[1],> 79 µM (inactive)
COc1cc(OC)c(NC(=O)c2sc3ncn(CC(=O)N4CCN(c5ccccn5)CC4)c(=O)c3c2C)cc1Cl,EC50,[2],11.6 µM (active)
same,EC50,[3],> 150 µM (not active)
same,EC50,[4],86.6 µM (active)
CC(=O)c1c(C)n(-c2cccc(Cl)c2)c2ccc(O)cc12,IC50,[1],10.4 µM (active)
